Assay results taken from patent US20230257396A1, “MACROCYCLES AND THEIR USE” (BLOSSOMHILL THERAPEUTICS, INC., priority 2020, published 2023).

Assays:
Experiment in all cases: KINOMEscan kinase binding assay (Eurofins/DiscoveRx), % Ctrl
kinases [1] = target: T1, kinases (Homo sapiens, UniProt P00519, H396P); conditions: 1 μM
T1 construct: purchased Eurofins/DiscoveRx; host or cells: E. coli BL21-derived host (T7 phage display) for most kinases; HEK-293 for the rest
In short: (§1)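 Read-out is qPCR of kinase eluted from ligand-coated streptavidin beads after 1 h room-temperature competition with test compound. Values are % Ctrl at the tested concentration, lower meaning tighter binding.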

kinases [2] = target: T2, kinases (Homo sapiens, UniProt P00519, M351T); conditions: 1 μM; ABL1(M351T)-phosphorylated
T2 construct: purchased Eurofins/DiscoveRx; host or cells: E. coli BL21-derived host (T7 phage display) for most kinases; HEK-293 for the rest
In short: as §1

kinases [3] = target: T3, kinases (Homo sapiens, UniProt P00533, DEL752-759); conditions: 1 μM; EGFR(S752-I759del)
T3 construct: purchased Eurofins/DiscoveRx; host or cells: E. coli BL21-derived host (T7 phage display) for most kinases; HEK-293 for the rest
In short: as §1

kinases [4] = target: T4, kinases (Homo sapiens, UniProt P00533, L861Q); conditions: 1 μM; EGFR(L861Q)
T4 construct: purchased Eurofins/DiscoveRx; host or cells: E. coli BL21-derived host (T7 phage display) for most kinases; HEK-293 for the rest
In short: as §1

kinases [5] = target: T5, kinases (Homo sapiens, UniProt P00533, T790M); conditions: 1 μM; EGFR(T790M)
T5 construct: purchased Eurofins/DiscoveRx; host or cells: E. coli BL21-derived host (T7 phage display) for most kinases; HEK-293 for the rest
In short: as §1

kinases [6] = target: T6, kinases (Homo sapiens, UniProt P07949, M918T); conditions: 1 μM; RET(M918T)
T6 construct: purchased Eurofins/DiscoveRx; host or cells: E. coli BL21-derived host (T7 phage display) for most kinases; HEK-293 for the rest
In short: as §1

kinases [7] = target: T7, kinases (Homo sapiens, UniProt P07949, V804L); conditions: 1 μM; RET(V804L)
T7 construct: purchased Eurofins/DiscoveRx; host or cells: E. coli BL21-derived host (T7 phage display) for most kinases; HEK-293 for the rest
In short: as §1

kinases [8] = target: T8, kinases (Homo sapiens, UniProt P07949, V804M); conditions: 1 μM; RET(V804M)
T8 construct: purchased Eurofins/DiscoveRx; host or cells: E. coli BL21-derived host (T7 phage display) for most kinases; HEK-293 for the rest
In short: as §1

kinases [9] = target: T9, kinases (Homo sapiens, UniProt P09619); conditions: 1 μM; PDGFRB
T9 construct: purchased Eurofins/DiscoveRx; host or cells: E. coli BL21-derived host (T7 phage display) for most kinases; HEK-293 for the rest
In short: as §1

kinases [10] = target: T10, kinases (Homo sapiens, UniProt P10721); conditions: 1 μM
T10 construct: purchased Eurofins/DiscoveRx; host or cells: E. coli BL21-derived host (T7 phage display) for most kinases; HEK-293 for the rest
In short: as §1

kinases [11] = target: T11, kinases (Homo sapiens, UniProt P10721, D816H); conditions: 1 μM; KIT(D816H)
T11 construct: purchased Eurofins/DiscoveRx; host or cells: E. coli BL21-derived host (T7 phage display) for most kinases; HEK-293 for the rest
In short: as §1

kinases [12] = target: T12, kinases (Homo sapiens, UniProt P10721, V559D); conditions: 1 μM; KIT(V559D)
T12 construct: purchased Eurofins/DiscoveRx; host or cells: E. coli BL21-derived host (T7 phage display) for most kinases; HEK-293 for the rest
In short: as §1

kinases [13] = target: T13, kinases (Homo sapiens, UniProt P35916); conditions: 1 μM; FLT4
T13 construct: purchased Eurofins/DiscoveRx; host or cells: E. coli BL21-derived host (T7 phage display) for most kinases; HEK-293 for the rest
In short: as §1

kinases [14] = target: T14, kinases (Homo sapiens, UniProt P36888); conditions: 1 μM
T14 construct: purchased Eurofins/DiscoveRx; host or cells: E. coli BL21-derived host (T7 phage display) for most kinases; HEK-293 for the rest
T14 sequence (P36888 27-993): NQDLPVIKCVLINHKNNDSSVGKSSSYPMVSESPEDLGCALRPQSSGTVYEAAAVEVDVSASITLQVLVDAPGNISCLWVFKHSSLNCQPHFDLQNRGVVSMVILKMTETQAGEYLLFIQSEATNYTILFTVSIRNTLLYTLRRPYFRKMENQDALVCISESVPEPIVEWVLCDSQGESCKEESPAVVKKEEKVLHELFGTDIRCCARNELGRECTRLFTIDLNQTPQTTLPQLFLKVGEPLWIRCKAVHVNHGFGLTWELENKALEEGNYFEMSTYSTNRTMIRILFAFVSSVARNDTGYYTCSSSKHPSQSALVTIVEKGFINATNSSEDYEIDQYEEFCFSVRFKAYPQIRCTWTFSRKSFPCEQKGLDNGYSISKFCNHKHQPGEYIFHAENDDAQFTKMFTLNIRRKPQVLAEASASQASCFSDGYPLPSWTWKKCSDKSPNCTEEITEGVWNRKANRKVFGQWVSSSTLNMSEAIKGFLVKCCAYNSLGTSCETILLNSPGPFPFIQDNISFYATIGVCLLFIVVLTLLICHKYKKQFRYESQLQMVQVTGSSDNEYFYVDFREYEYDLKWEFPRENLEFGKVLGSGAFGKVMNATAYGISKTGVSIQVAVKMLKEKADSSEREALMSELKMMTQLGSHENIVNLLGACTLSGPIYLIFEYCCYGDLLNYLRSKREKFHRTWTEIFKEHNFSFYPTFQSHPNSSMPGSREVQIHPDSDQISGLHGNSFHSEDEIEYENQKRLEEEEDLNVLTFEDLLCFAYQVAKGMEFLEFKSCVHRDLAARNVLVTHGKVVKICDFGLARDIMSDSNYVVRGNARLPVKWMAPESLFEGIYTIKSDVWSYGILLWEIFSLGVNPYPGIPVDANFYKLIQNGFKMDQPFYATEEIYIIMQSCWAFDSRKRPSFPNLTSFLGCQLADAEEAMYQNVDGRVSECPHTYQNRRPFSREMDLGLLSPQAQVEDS
In short: as §1

kinases [15] = target: T15, kinases (Homo sapiens, UniProt P42684); conditions: 1 μM; ABL2
T15 construct: purchased Eurofins/DiscoveRx; host or cells: E. coli BL21-derived host (T7 phage display) for most kinases; HEK-293 for the rest
In short: as §1

T11 sequence (P10721 26-976 D816H): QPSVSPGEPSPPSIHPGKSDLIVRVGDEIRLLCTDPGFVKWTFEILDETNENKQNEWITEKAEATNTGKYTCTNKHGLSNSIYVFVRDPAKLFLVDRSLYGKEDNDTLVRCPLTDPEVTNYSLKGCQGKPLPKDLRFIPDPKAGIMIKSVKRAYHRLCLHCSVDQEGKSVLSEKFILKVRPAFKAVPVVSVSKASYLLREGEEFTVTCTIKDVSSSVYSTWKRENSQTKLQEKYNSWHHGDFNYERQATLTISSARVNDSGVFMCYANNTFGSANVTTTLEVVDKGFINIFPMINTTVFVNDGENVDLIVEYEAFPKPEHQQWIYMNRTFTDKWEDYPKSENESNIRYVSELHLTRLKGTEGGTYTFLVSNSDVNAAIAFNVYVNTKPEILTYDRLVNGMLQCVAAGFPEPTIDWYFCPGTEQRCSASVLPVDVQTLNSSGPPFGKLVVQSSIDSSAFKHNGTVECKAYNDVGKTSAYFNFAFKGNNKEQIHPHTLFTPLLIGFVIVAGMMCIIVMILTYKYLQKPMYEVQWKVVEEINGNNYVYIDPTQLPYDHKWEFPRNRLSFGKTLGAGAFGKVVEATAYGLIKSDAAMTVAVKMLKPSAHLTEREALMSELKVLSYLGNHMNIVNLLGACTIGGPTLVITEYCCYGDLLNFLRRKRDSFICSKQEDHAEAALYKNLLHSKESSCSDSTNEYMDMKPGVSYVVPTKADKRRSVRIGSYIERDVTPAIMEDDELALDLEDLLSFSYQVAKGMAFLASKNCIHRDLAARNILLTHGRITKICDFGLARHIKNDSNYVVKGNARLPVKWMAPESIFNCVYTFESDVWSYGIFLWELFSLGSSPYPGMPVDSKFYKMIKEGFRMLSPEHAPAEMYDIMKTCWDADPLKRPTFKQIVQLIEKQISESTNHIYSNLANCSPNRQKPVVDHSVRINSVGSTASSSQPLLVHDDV
T10 sequence (P10721 26-976): as the sequence (P10721 26-976 D816H) above, with H791D counted along it
T13 sequence (P35916 25-1363): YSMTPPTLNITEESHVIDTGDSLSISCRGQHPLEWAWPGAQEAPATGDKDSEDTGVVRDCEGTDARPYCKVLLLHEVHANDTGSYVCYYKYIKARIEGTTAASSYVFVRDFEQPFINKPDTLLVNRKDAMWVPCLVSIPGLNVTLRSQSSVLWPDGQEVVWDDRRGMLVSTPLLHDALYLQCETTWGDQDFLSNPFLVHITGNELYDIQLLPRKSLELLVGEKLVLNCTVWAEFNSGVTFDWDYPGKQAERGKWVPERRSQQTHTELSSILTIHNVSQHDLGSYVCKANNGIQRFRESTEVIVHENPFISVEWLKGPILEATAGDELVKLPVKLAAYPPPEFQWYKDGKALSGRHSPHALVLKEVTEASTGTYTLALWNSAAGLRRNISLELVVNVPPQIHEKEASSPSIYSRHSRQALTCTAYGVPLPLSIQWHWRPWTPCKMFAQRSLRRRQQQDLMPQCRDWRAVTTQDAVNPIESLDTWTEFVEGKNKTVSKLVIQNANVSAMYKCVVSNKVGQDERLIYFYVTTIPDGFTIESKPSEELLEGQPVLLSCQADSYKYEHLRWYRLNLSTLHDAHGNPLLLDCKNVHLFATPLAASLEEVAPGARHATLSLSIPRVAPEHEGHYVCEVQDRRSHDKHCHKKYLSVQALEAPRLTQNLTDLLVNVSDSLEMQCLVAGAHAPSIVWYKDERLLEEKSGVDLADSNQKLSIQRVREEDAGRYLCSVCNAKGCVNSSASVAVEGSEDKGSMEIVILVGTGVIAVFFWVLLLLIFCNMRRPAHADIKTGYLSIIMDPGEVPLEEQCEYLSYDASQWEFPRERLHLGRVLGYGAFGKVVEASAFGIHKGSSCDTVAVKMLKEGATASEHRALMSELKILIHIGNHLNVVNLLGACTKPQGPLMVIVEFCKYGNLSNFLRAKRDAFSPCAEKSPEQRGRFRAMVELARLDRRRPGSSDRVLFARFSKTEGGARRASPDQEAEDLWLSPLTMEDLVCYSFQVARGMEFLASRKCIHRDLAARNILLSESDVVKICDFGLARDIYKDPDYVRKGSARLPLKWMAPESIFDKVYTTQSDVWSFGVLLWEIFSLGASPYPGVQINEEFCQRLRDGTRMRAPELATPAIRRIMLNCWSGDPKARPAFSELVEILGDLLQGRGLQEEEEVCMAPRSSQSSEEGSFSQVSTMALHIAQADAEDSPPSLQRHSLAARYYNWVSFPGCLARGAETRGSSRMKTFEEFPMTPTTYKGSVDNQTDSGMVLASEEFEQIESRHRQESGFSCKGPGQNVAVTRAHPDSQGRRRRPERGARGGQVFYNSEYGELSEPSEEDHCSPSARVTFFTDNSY
T7 sequence (P07949 29-1114 V804L): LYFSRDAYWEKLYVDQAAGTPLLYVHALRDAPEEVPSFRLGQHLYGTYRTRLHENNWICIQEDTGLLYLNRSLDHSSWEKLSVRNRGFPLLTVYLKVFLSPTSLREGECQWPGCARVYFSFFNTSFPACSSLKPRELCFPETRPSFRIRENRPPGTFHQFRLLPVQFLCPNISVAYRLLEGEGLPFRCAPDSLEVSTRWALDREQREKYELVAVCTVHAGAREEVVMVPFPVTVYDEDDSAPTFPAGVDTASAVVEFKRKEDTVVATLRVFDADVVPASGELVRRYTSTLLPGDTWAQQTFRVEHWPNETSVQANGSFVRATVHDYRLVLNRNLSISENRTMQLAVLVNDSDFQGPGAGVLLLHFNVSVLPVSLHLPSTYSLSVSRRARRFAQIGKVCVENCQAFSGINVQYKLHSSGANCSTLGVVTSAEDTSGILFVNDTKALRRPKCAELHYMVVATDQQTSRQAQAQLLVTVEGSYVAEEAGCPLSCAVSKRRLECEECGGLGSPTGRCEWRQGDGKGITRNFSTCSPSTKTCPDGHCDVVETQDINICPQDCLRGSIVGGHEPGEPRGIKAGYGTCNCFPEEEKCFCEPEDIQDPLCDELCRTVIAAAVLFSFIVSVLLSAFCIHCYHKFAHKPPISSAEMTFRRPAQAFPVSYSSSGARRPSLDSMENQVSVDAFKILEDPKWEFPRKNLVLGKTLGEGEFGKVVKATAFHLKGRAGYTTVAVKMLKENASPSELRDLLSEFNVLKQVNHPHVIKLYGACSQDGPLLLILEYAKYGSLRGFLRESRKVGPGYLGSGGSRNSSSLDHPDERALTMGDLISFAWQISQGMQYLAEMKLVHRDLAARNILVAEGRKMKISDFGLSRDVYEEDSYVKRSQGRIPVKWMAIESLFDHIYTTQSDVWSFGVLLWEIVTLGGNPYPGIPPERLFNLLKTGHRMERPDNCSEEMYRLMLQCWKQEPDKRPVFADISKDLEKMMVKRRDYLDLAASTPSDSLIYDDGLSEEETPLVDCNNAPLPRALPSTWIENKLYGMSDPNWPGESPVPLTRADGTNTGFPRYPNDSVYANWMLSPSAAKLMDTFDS
T9 sequence (P09619 33-1106): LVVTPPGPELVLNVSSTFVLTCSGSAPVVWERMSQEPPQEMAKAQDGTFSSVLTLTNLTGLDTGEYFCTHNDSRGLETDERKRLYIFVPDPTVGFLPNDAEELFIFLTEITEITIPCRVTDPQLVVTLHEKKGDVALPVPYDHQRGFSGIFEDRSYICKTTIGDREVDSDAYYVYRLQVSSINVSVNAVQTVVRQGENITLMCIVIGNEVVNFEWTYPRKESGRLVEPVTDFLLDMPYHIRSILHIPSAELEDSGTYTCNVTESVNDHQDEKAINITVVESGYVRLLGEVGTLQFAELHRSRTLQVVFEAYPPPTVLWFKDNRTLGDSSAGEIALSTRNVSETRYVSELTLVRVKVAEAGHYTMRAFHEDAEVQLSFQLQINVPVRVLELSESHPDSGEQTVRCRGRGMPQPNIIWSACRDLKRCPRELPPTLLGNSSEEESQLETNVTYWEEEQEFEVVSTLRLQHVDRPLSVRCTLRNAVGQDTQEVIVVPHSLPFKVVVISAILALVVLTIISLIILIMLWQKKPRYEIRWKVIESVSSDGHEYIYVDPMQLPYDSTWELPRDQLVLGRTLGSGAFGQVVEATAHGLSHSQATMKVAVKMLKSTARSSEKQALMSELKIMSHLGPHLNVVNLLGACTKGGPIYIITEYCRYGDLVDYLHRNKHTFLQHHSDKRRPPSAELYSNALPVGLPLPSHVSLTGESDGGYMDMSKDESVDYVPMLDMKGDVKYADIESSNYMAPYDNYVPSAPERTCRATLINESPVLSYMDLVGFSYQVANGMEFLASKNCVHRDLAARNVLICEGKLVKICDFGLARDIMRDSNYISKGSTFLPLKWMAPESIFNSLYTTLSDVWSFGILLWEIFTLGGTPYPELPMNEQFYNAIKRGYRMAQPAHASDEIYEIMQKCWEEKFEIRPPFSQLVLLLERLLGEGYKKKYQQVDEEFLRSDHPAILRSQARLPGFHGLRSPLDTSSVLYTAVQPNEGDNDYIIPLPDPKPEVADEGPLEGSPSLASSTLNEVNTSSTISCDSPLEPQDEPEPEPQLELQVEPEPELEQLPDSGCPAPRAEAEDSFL
T8 sequence (P07949 29-1114 V804M): as the sequence (P07949 29-1114 V804L) above, with L776M counted along it
T6 sequence (P07949 29-1114 M918T): as the sequence (P07949 29-1114 V804L) above, with L776V, M890T counted along it
T12 sequence (P10721 26-976 V559D): as the sequence (P10721 26-976 D816H) above, with V534D, H791D counted along it

% Ctrl, ABL1(H396P)-nonphosphorylated (kinases [1]) [% Ctrl] | % Ctrl, ABL1(H396P)-phosphorylated (kinases [1]) [% Ctrl] | % Ctrl, ABL1(M351T)-phosphorylated (kinases [2]) [% Ctrl] | % Ctrl, EGFR(S752-I759del) (kinases [3]) [% Ctrl] | % Ctrl, EGFR(L861Q) (kinases [4]) [% Ctrl] | % Ctrl, EGFR(T790M) (kinases [5]) [% Ctrl] | % Ctrl, RET(M918T) (kinases [6]) [% Ctrl] | % Ctrl, RET(V804L) (kinases [7]) [% Ctrl] | % Ctrl, RET(V804M) (kinases [8]) [% Ctrl] | % Ctrl, PDGFRB (kinases [9]) [% Ctrl] | % Ctrl, KIT (kinases [10]) [% Ctrl] | % Ctrl, KIT-autoinhibited (kinases [10]) [% Ctrl] | % Ctrl, KIT(D816H) (kinases [11]) [% Ctrl] | % Ctrl, KIT(V559D) (kinases [12]) [% Ctrl] | % Ctrl, FLT4 (kinases [13]) [% Ctrl] | % Ctrl, FLT3 (kinases [14]) [% Ctrl] | % Ctrl, FLT3-autoinhibited (kinases [14]) [% Ctrl] | % Ctrl, ABL2 (kinases [15]) [% Ctrl] | Structure (SMILES)
0.55 | 15 | 8.5 | 63 | 66 | 82 | 7 | 3.8 | 4 | 55 | 82 | 73 | 41 | 62 | 9.9 | 11 | 38 | 32 | Cc1cc2c([nH]1)/C=C1\C(=O)Nc3ccc(cc31)OCCOCCN(C)C2=O [Ex.91, [16a(17)Z]-2,5-dimethyl-6,7,9,10-tetrahydro-1H-12,14-(ethanediylidene)dipyrrolo[3,2-i:3′,4′-l][1,4,7]dioxazacyclopentadecine-4,16(5H,15H)-dione]
28 | 51 | 39 | 98 | 100 | 75 | 93 | 56 | 55 | 85 | 98 | 97 | 87 | 93 | 45 | 66 | 89 | 91 | Cc1cc2c([nH]1)/C=C1\C(=O)Nc3ccc(cc31)-c1c(noc1C)COCCN(C)C2=O [Ex. 128, [3a(4)Z]-6,9,16-trimethyl-1,11-dihydro-2H,13H-1,17-(ethanediylidene)[1,4]oxazolo[4,3-m]dipyrrolo[3,2-f:3′,4′-i][1,4]oxazacyclopentadecine-3,8(5H,9H)-dione]
0 | 0.1 | 0.05 | 32 | 50 | 1.6 | 0 | 0 | 0 | 0 | 6.3 | 84 | 0 | 1.4 | 0 | 0.2 | 0.25 | 0.9 | Cc1cc2c([nH]1)/C=C1\C(=O)Nc3ccc(cc31)-c1cnn(C)c1CN(C)CCN(C)C2=O [Ex. 126, [3a(4)Z]-6,9,12,14-tetramethyl-9,10,11,12,13,14-hexahydro-1,17-(ethanediylidene)pyrazolo[4,3-m]dipyrrolo[3,2-f:3′,4′-i][1,4]diazacyclopentadecine-3,8(2H,5H)-dione]
